Data published in paper PMC8087847, “Effects of self-assembled cell-penetrating peptides and their nano-complexes on ABCB1 expression and activity” (Iranian Journal of Basic Medical Sciences, 2021).
“Also recorded” adds a separate entry of the source. Like-named read-outs stand apart in the source and are kept apart here. No end group written: not given here.

Key:
A549 Dox-resistant cells [1] = experiment: MTT cell viability, effect of CPPs on Dox cytotoxicity
Description: (§1) A549 cell line is derived from a drug-resistant human lung carcinoma tissue and adherent in culture. […] It was cultured in RPMI-1640 medium supplemented with 10% FBS, 100 units/ml penicillin, and 100 µg/ml streptomycin at 37 °C in 5% CO2 a humidified atmosphere. Moreover, to develop resistance, 0.1 µM Dox was added to the medium which was not toxic to the cells.
(§2) Cells were detached from flasks by trypsin and seeded in 96-well plates with a cell density of 1.5×10^4 cells/well (containing 200 μl/well of medium) and incubated for 24 hr at 37 °C in a humidified atmosphere of 5% CO2. The next day, cells were treated with different concentrations of peptides (15, 25, 50 μM), and incubated at the same condition for 24 hr. […] Data were collected from at least 3 independent experiments performed in triplicates and analyzed using the Graphpad Prism 7 software package.

A549 cells [2] = experiment: Cellular uptake of FAM-labeled peptides by flow cytometry; details: different concentrations, comparison stated in discussion
Description: (§3) First, cells were seeded in 6-well plates (3×10^5 cells/well) and incubated for 24 hr. Then the medium was removed and cells were washed with PBS. FAM-labeled peptides and nano-complexes were added to wells and incubation was continued for 90 min. The old medium was removed and cells were washed with PBS three times and detached by trypsin/EDTA. Then 2 ml of medium was added to each well, and cells were centrifuged for 5 min, followed by washing three times with PBS and finally suspended in flow cytometry buffer to study the cellular uptake of FAM-labeled peptides and nano-complexes.

A549 cells [3] = tested on: A549 cells
Description: as §3

A549 Dox-resistant cells [4] = tested on: A549 Dox-resistant cells
Description: as §1, §2

Compound: COc1cccc2c1C(=O)c1c(O)c3c(c(O)c1C2=O)C[C@@](O)(C(=O)CO)C[C@@H]3O[C@H]1C[C@H](N)[C@H](O)[C@H](C)O1 [Dox, Doxorubicin, reference compound]
- IC50 (A549 Dox-resistant cells [1]; Homo sapiens, A549, read-out: IC50 of Dox): 20 µM

Compound: N=C(N)NCCC[C@H](NC(=O)[C@H](CCCNC(=N)N)NC(=O)[C@H](CCCNC(=N)N)NC(=O)[C@H](CCCNC(=N)N)NC(=O)[C@H](CCCNC(=N)N)NC(=O)[C@H](CCCNC(=N)N)NC(=O)[C@H](CCCNC(=N)N)NC(=O)[C@H](CCCNC(=N)N)NC(=O)[C@H](CCCNC(=N)N)NC(=O)[C@@H](N)CCCNC(=N)N)C(=O)O [Peptide P7]
- effect on Dox cytotoxicity (A549 Dox-resistant cells [1]; 25 µM and 50 µM peptide, 20 µM Dox, 24 hr (Figure 3a), MTT): resulted in Dox cytotoxicity; also recorded: increased the Dox toxicity
- effect on cytotoxicity of Dox (A549 Dox-resistant cells [1]; 50 µM peptide, 20 µM Dox, after 48 hr (Figure 3b), MTT): increased the cytotoxicity of Dox
- effect on Dox cytotoxicity (A549 Dox-resistant cells [1]; after 48 hr, peptide concentration not stated (abstract)): increased Dox cytotoxicity
- cellular uptake (discussion, method not specified) (A549 cells [2]): higher uptake efficacy

Compound: KKKKKKKKKK [Peptide P8]
- cell viability (A549 Dox-resistant cells [1]; 15 µM peptide 24 hr pre-treatment, then 20 µM Dox, 24 hr, MTT, at least 3 independent experiments in triplicates): 52.5%
- cellular uptake (discussion, method not specified) (A549 cells [3]): higher uptake compared with P8/E10 nano-complexes
- effect on Dox cytotoxicity (A549 Dox-resistant cells [4]): increased Dox cytotoxicity
